Assay results: patent US11472766B2, “Lipid nanoparticle composition” (Suzhou Abogen Biosciences Co., Ltd., priority 2020, dated 2022)

How the values were obtained:
[1] = Lipid nanoparticle size by dynamic light scattering (Malvern Zetasizer Nano ZS); format: physicochemical; settings: LNP: cationic lipid/DSPC/cholesterol/PEG-lipid 50:10:38.5:1.5, hEPO mRNA; Table 3
Outline: (§1)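 Lipids 50:10:38.5:1.5 (cationic:DSPC:chol:PEG) in EtOH + mRNA in citrate pH 4, 1:3 vol, microfluidic, 9–30 mL/min; total lipid:mRNA ~10:1–30:1 w/w. Dialysis to DPBS, 0.2 μm filter. DLS 173° backscatter; Ribogreen encapsulation.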

[2] = Encapsulation efficiency of lipid nanoparticles (Quant-it Ribogreen RNA quantification assay); format: physicochemical; settings: LNP encapsulating hEPO mRNA; Table 3
Outline: as §1

[3] = tested on: human erythropoietin (hEPO) mRNA; assay: Animal study: hEPO expression after tail vein injection of LNPs encapsulating hEPO mRNA (serum ELISA); format: in vivo; settings: hEPO level, female ICR mice, 0.5 mg/kg, 6 hours post administration, class symbols, Table 3
Outline: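 Female ICR mice (6-8 weeks) received LNPs carrying hEPO mRNA by tail vein injection at 0.5 mg/kg, with MC3 LNPs dosed the same way as positive control. Blood was drawn at set times (e.g., 6 h) and serum separated. hEPO was quantified by ELISA and reported as μg/ml.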

[4] = Apparent pKa of LNP formulations (TNS fluorescence assay); settings: LNP cationic lipid/DSPC/cholesterol/DMG-PEG 50/10/38.5/1.5 mol %, Table 3

CCCCCCCCC(CCCCCC)COC(=O)CCCCCN(CCCCCC(=O)OCC(CCCCCC)CCCCCCCC)CCN(CCCCCCCCO)C1CCC1 (stereo not shown) [Compound 31]
polydispersity [1]: 0.076
size nm [1]: 71.64 nm
Encapsulation Efficiency [2]: 92.4%
Expression at 6 h (μg/ml) [3]: C (≥0.1 and <1)
Apparant Pka [4]: 5.822

CCCCCCCCC(CCCCCC)COC(=O)CCCCCN(CCCCCC(=O)OCC(CCCCCC)CCCCCCCC)CCN(CC(C)O)C1CCC1 (stereo not shown) [Compound 32]
polydispersity [1]: 0.039
size nm [1]: 77.76 nm
Encapsulation Efficiency [2]: 94.3%
Expression at 6 h (μg/ml) [3]: C (≥0.1 and <1)
Apparant Pka [4]: 5.941

CCCCCCCCC(CCCCCC)COC(=O)CCCCCN(CCCCCC(=O)OCC(CCCCCC)CCCCCCCC)CCN(CC(O)CCCC)C1CCC1 (stereo not shown) [Compound 33]
polydispersity [1]: 0.091
size nm [1]: 62.2 nm
Encapsulation Efficiency [2]: 94.5%
Expression at 6 h (μg/ml) [3]: D (<0.1)
Apparant Pka [4]: 5.315

CCCCCCCCC(O)CN(CCN(CCCCCC(=O)OCC(CCCCCC)CCCCCCCC)CCCCCC(=O)OCC(CCCCCC)CCCCCCCC)C1CCC1 (stereo not shown) [Compound 34]
polydispersity [1]: 0.095
size nm [1]: 63.32 nm
Encapsulation Efficiency [2]: 96.1%
Expression at 6 h (μg/ml) [3]: D (<0.1)
Apparant Pka [4]: 5.29

CCCCCCCCC(CCCCCC)COC(=O)CCCCCN(CCCCCC(=O)OCC(CCCCCC)CCCCCCCC)CCN(CCO)C1CCC1 (stereo not shown) [Compound 35]
polydispersity [1]: 0.086
size nm [1]: 60.58 nm
Encapsulation Efficiency [2]: 94.8%
Expression at 6 h (μg/ml) [3]: C (≥0.1 and <1)
Apparant Pka [4]: 5.945

CCCCCCCCC(CCCCCC)COC(=O)CCCCN(CCCCC(=O)OCC(CCCCCC)CCCCCCCC)CCN(CCO)C1CCC1 (stereo not shown) [Compound 36]
polydispersity [1]: 0.065
size nm [1]: 70.36 nm
Encapsulation Efficiency [2]: 98.3%
Expression at 6 h (μg/ml) [3]: A (≥2)
Apparant Pka [4]: 5.907

CCCCCCCCC(CCCCCC)COC(=O)CCCCCCN(CCCCCCC(=O)OCC(CCCCCC)CCCCCCCC)CCN(CCO)C1CCC1 (stereo not shown) [Compound 37]
polydispersity [1]: 0.034
size nm [1]: 84.26 nm
Encapsulation Efficiency [2]: 97.0%
Expression at 6 h (μg/ml) [3]: A (≥2)
Apparant Pka [4]: 6.205

CCCCCCCCC(CCCCCC)C(C)OC(=O)CCCCCN(CCCCCC(=O)OC(C)C(CCCCCC)CCCCCCCC)CCN(CCO)C1CCC1 (stereo not shown) [Compound 38]
polydispersity [1]: 0.167
size nm [1]: 65.94 nm
Encapsulation Efficiency [2]: 98.7%
Expression at 6 h (μg/ml) [3]: C (≥0.1 and <1)
Apparant Pka [4]: 6.172

CCCCCCCCC(CCCCCC)C(CC)OC(=O)CCCCCN(CCCCCC(=O)OC(CC)C(CCCCCC)CCCCCCCC)CCN(CCO)C1CCC1 (stereo not shown) [Compound 39]
polydispersity [1]: 0.043
size nm [1]: 64.4 nm
Encapsulation Efficiency [2]: 98.8%
Expression at 6 h (μg/ml) [3]: C (≥0.1 and <1)
Apparant Pka [4]: 6.061

CCCCCCCCCCC(CCCCCC)COC(=O)CCCN(CCCC(=O)OCC(CCCCCC)CCCCCCCCCC)CCN(CCO)C1CCC1 (stereo not shown) [Compound 41]
polydispersity [1]: 0.054
size nm [1]: 64.04 nm
Encapsulation Efficiency [2]: 97.5%
Expression at 6 h (μg/ml) [3]: C (≥0.1 and <1)
Apparant Pka [4]: 5.93

CCCCCCCCCCC(CCCCCC)COC(=O)CCCCN(CCCCC(=O)OCC(CCCCCC)CCCCCCCCCC)CCN(CCO)C1CCC1 (stereo not shown) [Compound 42]
polydispersity [1]: 0.065
size nm [1]: 65.63 nm
Encapsulation Efficiency [2]: 96.4%
Expression at 6 h (μg/ml) [3]: C (≥0.1 and <1)
Apparant Pka [4]: 6.196

CCCCCCCCC(CCCCCC)C(=O)OCCCCCCCCCN(CCCCCCCCCOC(=O)C(CCCCCC)CCCCCCCC)CCN(CCO)C1CCC1 (stereo not shown) [Compound 44]
polydispersity [1]: 0.063
size nm [1]: 83.85 nm
Encapsulation Efficiency [2]: 97.5%
Expression at 6 h (μg/ml) [3]: B (≥1 and <2)
Apparant Pka [4]: 6.049

CCCCCC/C=C\COC(=O)CCCCCN(CCCC(=O)OC(CCCCCCC)CCCCCCC)CCN(CCO)C1CCC1 [Compound 46]
polydispersity [1]: 0.073
size nm [1]: 110.4 nm
Encapsulation Efficiency [2]: 93.8%
Expression at 6 h (μg/ml) [3]: C (≥0.1 and <1)
Apparant Pka [4]: 6.307

CCCCCCC(CCCCCC)COC(=O)CCCCCN(CCCCCC(=O)OCC(CCCCCC)CCCCCC)CCN(CCO)C1CCC1 [Compound 48]
polydispersity [1]: 0.065
size nm [1]: 72.52 nm
Encapsulation Efficiency [2]: 91.80%
Expression at 6 h (μg/ml) [3]: A (≥2)
Apparant Pka [4]: 6.347

CCCCCCCC(CCCCCCC)COC(=O)CCCCCN(CCCCCC(=O)OCC(CCCCCCC)CCCCCCC)CCN(CCO)C1CCC1 [Compound 49]
polydispersity [1]: 0.075
size nm [1]: 65.13 nm
Encapsulation Efficiency [2]: 94.1%
Expression at 6 h (μg/ml) [3]: A (≥2)
Apparant Pka [4]: 6.249

CCCCCCCCC(CCCCCCCC)COC(=O)CCCCCN(CCCCCC(=O)OCC(CCCCCCCC)CCCCCCCC)CCN(CCO)C1CCC1 [Compound 50]
polydispersity [1]: 0.085
size nm [1]: 67.68 nm
Encapsulation Efficiency [2]: 94.90%
Expression at 6 h (μg/ml) [3]: A (≥2)
Apparant Pka [4]: 6.143

CCCCCCCCCC(CCCCCCCCC)COC(=O)CCCCCN(CCCCCC(=O)OCC(CCCCCCCCC)CCCCCCCCC)CCN(CCO)C1CCC1 [Compound 51]
polydispersity [1]: 0.073
size nm [1]: 59.73 nm
Encapsulation Efficiency [2]: 94.10%
Expression at 6 h (μg/ml) [3]: A (≥2)
Apparant Pka [4]: 6.093

CCCCCCCCC(CCCCCC)COC(=O)CCCCCN(CCCCCC(=O)OCC(CCCCCC)CCCCCCCC)CCN(CCC)C1CCC(O)CC1 (stereo not shown) [Compound 56]
polydispersity [1]: 0.07
size nm [1]: 85.46 nm
Encapsulation Efficiency [2]: 96.4%
Expression at 6 h (μg/ml) [3]: A (≥2)
Apparant Pka [4]: 6.466

CCCCCCCCC(CCCCCC)COC(=O)CCCCCN(CCCCCC(=O)OCC(CCCCCC)CCCCCCCC)CCN(C(C)C)C1CCC(O)CC1 (stereo not shown) [Compound 57]
polydispersity [1]: 0.063
size nm [1]: 93.52 nm
Encapsulation Efficiency [2]: 96.1%
Expression at 6 h (μg/ml) [3]: A (≥2)
Apparant Pka [4]: 6.645

CCCCCCCCC(CCCCCC)COC(=O)CCCCCN(CCCCCC(=O)OCC(CCCCCC)CCCCCCCC)CCN(CCCC)C1CCC(O)CC1 (stereo not shown) [Compound 58]
polydispersity [1]: 0.067
size nm [1]: 74.68 nm
Encapsulation Efficiency [2]: 90.7%
Expression at 6 h (μg/ml) [3]: A (≥2)
Apparant Pka [4]: 6.364

CCCCCCCCC(CCCCCC)COC(=O)CCCCCN(CCCCCC(=O)OCC(CCCCCC)CCCCCCCC)CCN(C)C1CC(O)C1 (stereo not shown) [Compound 59]
polydispersity [1]: 0.008
size nm [1]: 93.24 nm
Encapsulation Efficiency [2]: 97.7%
Expression at 6 h (μg/ml) [3]: B (≥1 and <2)
Apparant Pka [4]: 6.682

CCCCCCCCC(CCCCCC)COC(=O)CCCCCN(CCCCCC(=O)OCC(CCCCCC)CCCCCCCC)CCN(CCC)C1CC(O)C1 (stereo not shown) [Compound 60]
polydispersity [1]: 0.086
size nm [1]: 68.6 nm
Encapsulation Efficiency [2]: 92.1%
Expression at 6 h (μg/ml) [3]: B (≥1 and <2)
Apparant Pka [4]: 6.329

CCCCC/C=C\CCCOC(=O)CCCCCN(CCCCCC(=O)OCCC/C=C\CCCCC)CCN(CCO)C1CCC1 [Compound 62]
polydispersity [1]: 0.156
size nm [1]: 244.8 nm
Encapsulation Efficiency [2]: 36.2%
Expression at 6 h (μg/ml) [3]: D (<0.1)
Apparant Pka [4]: 6.438

CCCCC/C=C\CCCC(CCC/C=C\CCCCC)OC(=O)CCCCCN(CCCCCC(=O)OCCC/C=C/CCCCC)CCN(CCO)C1CCC1 [Compound 63]
polydispersity [1]: 0.088
size nm [1]: 94.11 nm
Encapsulation Efficiency [2]: 85.9%
Expression at 6 h (μg/ml) [3]: B (≥1 and <2)
Apparant Pka [4]: 6.406

CCCCCCCCC(CCCCCCCC)COC(=O)CCCCCN(CCCCCC(=O)OCC(CCCCCCCC)CCCCCCCC)CCN(CCO)C1CCCOC1 (stereo not shown) [Compound 65]
polydispersity [1]: 0.066
size nm [1]: 63.83 nm
Encapsulation Efficiency [2]: 93.0%
Expression at 6 h (μg/ml) [3]: A (≥2)
Apparant Pka [4]: 6.544

CCCCC/C=C\CCCC(CCC/C=C\CCCCC)COC(=O)CCCCCN(CCCCCC(=O)OCC(CCC/C=C\CCCCC)CCC/C=C\CCCCC)CCN(CCO)C1CCC1 [Compound 66]
polydispersity [1]: 0.064
size nm [1]: 63.86 nm
Encapsulation Efficiency [2]: 80.0%
Expression at 6 h (μg/ml) [3]: B (≥1 and <2)
Apparant Pka [4]: 6.036

CCCCCCCCC(CCCCCCCC)COC(=O)CCCCCN(CCCCCC(=O)OCC(CCCCCCCC)CCCCCCCC)CCN(CCCC)C1CCC(O)CC1 (stereo not shown) [Compound 67]
polydispersity [1]: 0.05
size nm [1]: 64.75 nm
Encapsulation Efficiency [2]: 79.3%
Expression at 6 h (μg/ml) [3]: B (≥1 and <2)
Apparant Pka [4]: 6.341

CCCCCCCCC(CCCCCCCC)COC(=O)CCCCCN(CCCCCC(=O)OCC(CCCCCCCC)CCCCCCCC)CCN(CCC)C1CCCC1O (stereo not shown) [Compound 68]
polydispersity [1]: 0.052
size nm [1]: 56.96 nm
Encapsulation Efficiency [2]: 80.1%
Expression at 6 h (μg/ml) [3]: C (≥0.1 and <1)
Apparant Pka [4]: 6.279

CCCCCCCCC(CCCCCCCC)COC(=O)CCCCCN(CCCCCC(=O)OCC(CCCCCCCC)CCCCCCCC)CCN(CCC)C1CCC(O)CC1 (stereo not shown) [Compound 70]
polydispersity [1]: 0.034
size nm [1]: 77.54 nm
Encapsulation Efficiency [2]: 84.3%
Expression at 6 h (μg/ml) [3]: A (≥2)
Apparant Pka [4]: 6.381
